{"source": "patent US11078170B2", "about": "(Assembly Biosciences, Inc., priority 2017, dated 2021)"}
{"test_system": "HBV viral production from HepAD38 cells", "assay": "Activity of test compounds on viral production from HepAD38 cells (viral load by qPCR of HBV core sequence in supernatant)", "format": "cell-based", "settings": "Hepatitis B virus, 120 h, 5 days incubation, HBV DNA in supernatant by qPCR, top concentration 10 μM, read-out: Viral Load EC50 Activity range", "experimental": "Assay Measuring Activity of Test Compounds on Viral Production from HepAD38 Cells\nHepAD38 cells grown in a T-150 flask (Corning, cat #: 430825) with Growth Medium (DMEM/F12 (1:1) (Hyclone, cat #: SH30023.02), 1×Pen/Strep (Invitrogen, cat #: 15140-122), 10% FBS (Tissue Culture Biologics, cat #: 101), 250 μg/mL G418 (Alfa Aesar, cat #: J62671), 1 μg/mL Tetracycline (Teknova, cat #: T3320)) were detached with 0.25% trypsin-EDTA (Invitrogen, cat #: 25200-056). Tetracycline-free treatment medium (15 mL DMEM/F12 (1:1) 1× Pen/step, with 2% FBS, Tet-system approved (Clontech, cat #: 631106) were then added to mix, transferred into a 50 ml conical tube (Falcon, cat #: 21008-918) and spun at 1300 rpm for 5 min. Pelleted cells were then re-suspended/washed with 50 mL of 1×DPBS (Invitrogen, cat #: 14190-136) 2 times and 50 mL treatment medium twice. HepAD38 cells were then re-suspended with 10 mL of treatment medium, syringed and counted. Wells of 96-well clear bottom TC plate (Corning, cat #: 3904) were seeded at 50,000 cells/well in 180 μL of treatment medium, and 20 μL of either 10% DMSO (Sigma, cat #: D4540) as controls or a 10× solution of test compounds in 10% DMSO in treatment media was added for a final compound concentration starting at 10 μM, and plates were incubated in 5% CO2 incubator at 37° C. for 5 days.\nSubsequently viral load production was assayed by quantitative PCR (qPCR) of the HBV core sequence. PCR reaction mixture containing forward primers HBV-f 5′-CTGTGCCTTGGGTGGCTTT-3′, which is SEQ ID NO 1, (IDT DNA), Reverse primers HBV-r 5′-[…]-3′, which is SEQ ID NO 2 (IDT DNA), Fluorescent TaqMan™ Probes HBV-probe 5′-FAM/AGCTCCAAA/ZEN/[…]/3IABkFQ-3′ (IDT DNA), which is SEQ ID NO 3, 10 μL/well of PerfeCTa® qPCR ToughMix® (Quanta Biosciences, Cat #: 95114-05K), and 6 µL/well of DEPC water (Alfa Aesar, cat #: J62087) was prepared. Four μL of supernatant was added to 16 μL of the reaction mixture in a qPCR plate (Applied Biosytems, Cat #: 4309849), sealed with a film (Applied Biosystems, Cat #: 4311971), centrifuged for a few seconds, and subsequently run on an Applied Biosystems VIIA7. The PCR mixture was incubated at 45° C. for 5 min, then 95° C. for 10 min, followed by 40 cycles of 10 seconds at 95° C. and 20 seconds at 60° C. Viral load was quantified against known HBV DNA standards by using ViiA™ 7 Software. Viral load in the supernatant from wells with treated cells were compared against viral load in supernatant from DMSO control wells (≥3 per plate). Cell viability assay was performed with CellTiter-Glo Luminescent Cell Viability Assay (Promega, cat #: G7573) with modification. Mixed appropriate amount of CellTiter-Glo (CTG) 1×DPBS in a 1:1 ratio, added 100 uL of the mixture to each well followed completely removal of all supernatant in each well without touching cell surface. Incubated the plate at room temperature for 10 min on an orbital shaker, and then read the plate with a plate reader (TECAN M1000 or Envision). EC50 or CC50 values were calculated through curve-fitting of the four-parameter nonlinear-logistic-regression model (GraphPad Prism or Dotmatics). CC50 values were all >10 μM.", "units": {"EC50": "nM"}}
{"compound": "CN1C(C(=O)Nc2ccc(F)c(Cl)c2)CC(c2ncc(-c3ccc(Br)c(F)c3)s2)NS1(=O)=O", "note": "(racemic) [HBV-CSU-173, Cis-5-(5-(4-Bromo-3-fluorophenyl)thiazol-2-yl)-N-(3-chloro-4-fluorophenyl)-2-methyl-1,2,6-thiadiazinane-3-carboxamide 1,1-dioxide]", "EC50": "< 1000"}
{"compound": "CN1C(C(=O)Nc2ccc(F)c(Cl)c2)CC(c2ncc(-c3cccnc3)s2)NS1(=O)=O", "note": "(racemic) [HBV-CSU-175, Cis-N-(3-Chloro-4-fluorophenyl)-2-methyl-5-(5-(pyridin-3-yl)thiazol-2-yl)-1,2,6-thiadiazinane-3-carboxamide 1,1-dioxide]", "EC50": "< 1000"}
{"compound": "CN1C(C(=O)Nc2ccc(F)c(Cl)c2)CC(c2ncc(-c3ccccn3)s2)NS1(=O)=O", "note": "(racemic) [HBV-CSU-176, Cis-N-(3-chloro-4-fluorophenyl)-2-methyl-5-(5-(pyridin-2-yl)thiazol-2-yl)-1,2,6-thiadiazinane-3-carboxamide 1,1-dioxide]", "EC50": "< 1000"}
{"compound": "CN1C(C(=O)Nc2ccc(F)c(Cl)c2)CC(c2ncc(-c3cnn(C)c3)s2)NS1(=O)=O", "note": "(racemic) [HBV-CSU-177, Cis-N-(3-Chloro-4-fluorophenyl)-2-methyl-5-(5-(1-methyl-1H-pyrazol-4-yl)thiazol-2-yl)-1,2,6-thiadiazinane-3-carboxamide 1,1-dioxide]", "EC50": "< 1000"}
{"compound": "CN1C(C(=O)Nc2ccc(F)c(Cl)c2)CC(c2ncc(-c3cccs3)s2)NS1(=O)=O", "note": "(racemic) [HBV-CSU-178, Cis-N-(3-Chloro-4-fluorophenyl)-2-methyl-5-(5-(thiophen-2-yl)thiazol-2-yl)-1,2,6-thiadiazinane-3-carboxamide 1,1-dioxide]", "EC50": "< 1000"}
{"compound": "CN(C)CCOc1ccc(C2CC(C(=O)Nc3ccc(F)c(Cl)c3)N(C)S(=O)(=O)N2)s1", "note": "(racemic) [HBV-CSU-188, Cis-N-(3-chloro-4-fluorophenyl)-5-(5-(2-(dimethylamino)ethoxy)thiophen-2-yl)-2-methyl-1,2,6-thiadiazinane-3-carboxamide 1,1-dioxide]", "EC50": "< 1000"}
{"compound": "CN(C)CCCOc1ccc(C2CC(C(=O)Nc3ccc(F)c(Cl)c3)N(C)S(=O)(=O)N2)cc1", "note": "(racemic) [HBV-CSU-208, Cis-N-(3-chloro-4-fluorophenyl)-5-(4-(3-(dimethylamino)propoxy)phenyl)-2-methyl-1,2,6-thiadiazinane-3-carboxamide 1,1-dioxide]", "EC50": "< 1000"}
{"compound": "COCCN1C(C(=O)Nc2ccc(F)c(Cl)c2)CC(c2ccc(F)cc2)NS1(=O)=O", "note": "(racemic) [HBV-CSU-210, Cis-N-(3-Chloro-4-fluorophenyl)-5-(4-fluorophenyl)-2-(2-methoxyethyl)-1,2,6-thiadiazinane-3-carboxamide 1,1-dioxide]", "EC50": "< 1000"}
{"compound": "CN1C(C(=O)Nc2ccc(F)c(Br)c2)CC(c2ccc(F)cc2)NS1(=O)=O", "note": "(racemic) [HBV-CSU-211, Cis-N-(3-Bromo-4-fluorophenyl)-5-(4-fluorophenyl)-2-methyl-1,2,6-thiadiazinane-3-carboxamide 1,1-dioxide]", "EC50": "< 1000"}
{"compound": "CN1C(C(=O)Nc2cc(F)c(F)c(F)c2)CC(c2ccc(F)cc2)NS1(=O)=O", "note": "(racemic) [HBV-CSU-212, Cis-5-(4-Fluorophenyl)-2-methyl-N-(3,4,5-trifluorophenyl)-1,2,6-thiadiazinane-3-carboxamide 1,1-dioxide]", "EC50": "< 1000"}
{"compound": "CN1C(C(=O)Nc2ccc(F)c(Cl)c2)CC(c2ccc(C#N)cc2)NS1(=O)=O", "note": "(racemic) [HBV-CSU-213, Cis-N-(3-chloro-4-fluorophenyl)-5-(4-cyanophenyl)-2-methyl-1,2,6-thiadiazinane-3-carboxamide 1,1-dioxide]", "EC50": "< 1000"}
{"compound": "CN1C(C(=O)Nc2ccc(F)c(Cl)c2)CC(c2ccc(C(N)=O)cc2)NS1(=O)=O", "note": "(racemic) [HBV-CSU-214, Cis-5-(4-Carbamoylphenyl)-N-(3-chloro-4-fluorophenyl)-2-methyl-1,2,6-thiadiazinane-3-carboxamide 1,1-dioxide]", "EC50": "< 1000"}
{"compound": "CN1C(C(=O)Nc2ccc(F)c(Cl)c2)CC(c2ccc(OCC(=O)O)cc2)NS1(=O)=O", "note": "(racemic) [HBV-CSU-216, Cis-2-(4-(5-((3-Chloro-4-fluorophenyl)carbamoyl)-6-methyl-1,1-dioxido-1,2,6-thiadiazinan-3-yl)phenoxy)acetic acid]", "EC50": "> 5000"}
{"compound": "CN1C(C(=O)Nc2ccc(F)c(Cl)c2)CC(c2ccc(C(F)(F)F)cc2)NS1(=O)=O", "note": "(racemic) [HBV-CSU-217, Cis-N-(3-Chloro-4-fluorophenyl)-2-methyl-5-(4-(trifluoromethyl)phenyl)-1,2,6-thiadiazinane-3-carboxamide 1,1-dioxide]", "EC50": "1000 to 5000"}
{"compound": "CN1C(C(=O)Nc2ccc(F)c(Cl)c2)CC(c2ccc(C(=O)O)cc2)NS1(=O)=O", "note": "(racemic) [HBV-CSU-218, Cis-4-(5-((3-Chloro-4-fluorophenyl)carbamoyl)-6-methyl-1,1-dioxido-1,2,6-thiadiazinan-3-yl)benzoic acid]", "EC50": "1000 to 5000"}
{"compound": "CN1C(C(=O)Nc2ccc(F)c(Cl)c2)CC(c2ccc(C(F)(F)F)s2)NS1(=O)=O", "note": "(racemic) [HBV-CSU-219, Cis-N-(3-Chloro-4-fluorophenyl)-2-methyl-5-(5-(trifluoromethyl)thiophen-2-yl)-1,2,6-thiadiazinane-3-carboxamide 1,1-dioxide]", "EC50": "< 1000"}
{"compound": "CN1C(C(=O)Nc2ccc(F)c(Cl)c2)CC(c2ccc(C#N)c(F)c2)NS1(=O)=O", "note": "(racemic) [HBV-CSU-221, Cis-N-(3-chloro-4-fluorophenyl)-5-(4-cyano-3-fluorophenyl)-2-methyl-1,2,6-thiadiazinane-3-carboxamide 1,1-dioxide]", "EC50": "< 1000"}
{"compound": "CN1C(C(=O)Nc2ccc(F)c(Cl)c2)CC(C2CCCC2)NS1(=O)=O", "note": "(racemic) [HBV-CSU-222, Cis-N-(3-chloro-4-fluorophenyl)-5-cyclopentyl-2-methyl-1,2,6-thiadiazinane-3-carboxamide 1,1-dioxide]", "EC50": "< 1000"}
{"compound": "Cc1ncc(C2CC(C(=O)Nc3ccc(F)c(Cl)c3)N(C)S(=O)(=O)N2)s1", "note": "(racemic) [HBV-CSU-224, Cis-N-(3-Chloro-4-fluorophenyl)-2-methyl-5-(2-methylthiazol-5-yl)-1,2,6-thiadiazinane-3-carboxamide 1,1-dioxide]", "EC50": "< 1000"}
{"compound": "CN1C(C(=O)Nc2ccc(F)c(Cl)c2)CC(c2ccc(F)c(F)c2)NS1(=O)=O", "note": "(racemic) [HBV-CSU-230, Cis-N-(3-Chloro-4-fluorophenyl)-5-(3,4-difluorophenyl)-2-methyl-1,2,6-thiadiazinane-3-carboxamide 1,1-dioxide]", "EC50": "< 1000"}
{"compound": "CN1C(C(=O)Nc2ccc(F)c(Cl)c2)CC(c2cccc(F)c2)NS1(=O)=O", "note": "(racemic) [HBV-CSU-231, Cis-N-(3-Chloro-4-fluorophenyl)-5-(3-fluorophenyl)-2-methyl-1,2,6-thiadiazinane-3-carboxamide 1,1-dioxide]", "EC50": "< 1000"}
{"compound": "CN1C(C(=O)Nc2ccc(F)c(Cl)c2)CC(c2ccc(OC(F)(F)F)cc2)NS1(=O)=O", "note": "(racemic) [HBV-CSU-232, Cis-N-(3-Chloro-4-fluorophenyl)-2-methyl-5-(4-(trifluoromethoxy)phenyl)-1,2,6-thiadiazinane-3-carboxamide 1,1-dioxide]", "EC50": "< 1000"}
{"compound": "CN1C(C(=O)Nc2ccc(F)c(Cl)c2)CC(c2ccc(-c3ccc(F)cn3)s2)NS1(=O)=O", "note": "(racemic) [HBV-CSU-242, Cis-N-(3-chloro-4-fluorophenyl)-5-(5-(5-fluoropyridin-2-yl)thiophen-2-yl)-2-methyl-1,2,6-thiadiazinane-3-carboxamide 1,1-dioxide]", "EC50": "< 1000"}
